Where a name gives a salt, the structure may show the parent alone. Read-outs that look alike come from different tables or passages of the source.
Tests used:
[1] = system: avoidance behavior; assay: Discrete Avoidance - Rats (avoidance block / escape block); assay type: in vivo, rat; settings: for inhibition in vivo at 40 mg/kg / inhibition in vivo at 25 mg/kg: Rattus norvegicus
From the text: For example, by one procedure, trained rats are placed in experimental chambers equipped with a response lever, a steel grid floor for delivery of electric shock and a loudspeaker for presentation of auditory stimuli. […] The rats can terminate a trial at any point by depression of the response lever. A response during the initial fifteen-second warning tone ends the trial before shock delivery and is considered an avoidance response, while a response occurring during shock delivery is an escape response. Trials are presented every two minutes during a one-hour test session (30 trials per session). […] Compounds are administered to a minimum of three to four rats at each dose level over a range of doses. Rats receive vehicle alone, during control sessions prior to drug administration. Each rat is tested daily or weekly, after a single drug administration, until avoidance behavior returns to pre-drug baseline levels. The session is divided into three consecutive twenty minute (ten trial) segments. Response counts are summed over all subjects at a given dose within each segment. […] This number is expressed as a percentage of the total trials within the segment. […] The lowest dose which produced a 20% block of escape responding (EBD 20) is read from a graphic dose-effect plot. In obtaining these values, percent effect is plotted against the log dose.

[2] = system: Continuous Avoidance; assay: Continuous Avoidance (Squirrel Monkeys); assay type: in vivo, squirrel monkey; settings: Primates; Squirrel Monkey, PO, 1 Hour Post-Drug; read-out: Continuous Avoidance MED Shocks
[3] = system: Apomorphine Induced Emesis; assay: Apomorphine Induced Emesis antagonism (Dogs); assay type: in vivo, dog; settings: Canis lupus familiaris; Dog, SC, 1 Hour Post-Drug; read-out: Anti-Apomorphine Emesis ED50
[4] = system: Amphetamine Induced Rotation; assay: Amphetamine Induced Rotation antagonism (S. Nigra Lesioned Rats) / Rotation Antagonism; assay type: in vivo, rat; settings: Rat, PO, 1 Hour Post-Drug
[5] = system: Confinement Motor Activity; assay: Confinement Motor Activity; assay type: in vivo; settings: Rat, PO, 1 Hour Post-Drug; read-out: Confinement Motor Activity DD50
[6] = system: Dopamine Turnover-Brain Caudate; assay: Dopamine Turnover-Brain, Caudate; assay type: in vivo; settings: Rat, 1 mg/kg IP, 1 Hour Post-Drug
[7] = system: Dopamine Turnover-Brain Limbic and Remainder; assay: Dopamine Turnover-Brain, Limbic and Remainder; assay type: in vivo; settings: Rat, 1 mg/kg IP, 1 Hour Post-Drug
[8] = 1 h, 40 mg/kg po, 60 min. post-drug, read-out: Percentage Block of Avoidance, 60 min. post-drug
[9] = 40 mg/kg po, 24 hrs. post-drug, read-out: Percentage Block of Avoidance, 24 hrs. post-drug
[10] = 40 mg/kg po, at the indicated duration, read-out: Avoidance block at Duration of Sig. Activity (AB)
[11] = 40 mg/kg po, at time of peak effect, read-out: Avoidance block at Time of Peak Effect (AB)

SMILES	Duration of Sig. Activity ([1]; 40 mg/kg po)	Time of Peak Effect ([1]; 40 mg/kg po)	inhibition in vivo at 40 mg/kg [1, 8]	inhibition in vivo at 40 mg/kg [1, 9]	inhibition in vivo at 40 mg/kg [1, 10]	inhibition in vivo at 40 mg/kg [1, 11]	other results
CC(C)NCCCCCOc1ccc(OCCN2CCN(CCCN3c4ccccc4Sc4ccc(Cl)cc43)CC2)cc1 [1-[3-(2-chloro-10H--phenothiazin-10-yl)propyl]-4-[2-[4-[5-(1-methylethyl)aminopentoxy]phenoxy]ethyl]piperazine trimaleate]	2 weeks	1 days	10%	97%	23%	97%	
CC(C)NCCCCCCOc1ccc(OCCN2CCN(CCCN3c4ccccc4Sc4ccc(Cl)cc43)CC2)cc1 [1-[3-(2-chloro-10H-phenothiazin-10-yl)]-4-[2-[4-[6-(1-methylethyl)aminohexyloxy]phenoxy]ethyl]piperazine trihydrochloride]	1 weeks	1 days	23%	40%	30%	40%	
CC(C)NCCCOc1ccc(OCCN2CCN(CCCN3c4ccccc4Sc4ccc(Cl)cc43)CC2)cc1 [1-[3-(2-chloro-10H-phenothiazin-10-yl)propyl]-4-2-[4-[3-(1-methylethyl)aminopropoxy]phenoxy]ethyl]piperazine trihydrochloride]	5 weeks	1 days	10%	97%	50%	97%	
CC(C)NCCOc1ccc(OCCN2CCN(CCCN3c4ccccc4Sc4ccc(Cl)cc43)CC2)cc1.Cl.Cl.Cl [1-[3-(2-chloro-10H-phenothiazin-10-yl)propyl]-4-[2-[4-[2-(1-methylethyl)aminoethoxy]phenoxy]ethyl]piperazine trihydrochloride]	8 weeks	1 days	10%	100%	37%	100%	
CC(C)NCCc1ccc(OCCN2CCN(CCCN3c4ccccc4Sc4ccc(Cl)cc43)CC2)cc1.O=C(O)/C=C\C(=O)O.O=C(O)/C=C\C(=O)O.O=C(O)/C=C\C(=O)O [1-[3-(2-chloro-10H-phenothiazin-10-yl)propyl]-4-[2-[4-[2-(1-methylethyl)aminoethyl]phenoxy]ethyl]piperazine trimaleate]	5 weeks	1 days	10%	100%	80%	100%	
CC(C)NCCCc1ccc(OCCN2CCN(CCCN3c4ccccc4Sc4ccc(Cl)cc43)CC2)cc1.Cl.Cl.Cl [1-[3-(2-chloro-10H-phenothiazin-10-yl)propyl]-4-[2-[4-[3-(1-methylethyl)aminopropyl]phenoxy]ethyl]piperazine trihydrochloride]	5 weeks	1 days	45%	100%	55%	100%	
CC(C)NCCCCOc1ccc(OCCN2CCN(CCCN3c4ccccc4Sc4ccc(Cl)cc43)CC2)cc1.Cl.Cl.Cl [1-[3-(2-chloro-10H-phenothiazin-10-yl)propyl]-4-[2-[4-[4-(1-methylethyl)aminobutoxy]phenoxy]ethyl]piperazine trihydrochloride]	5 weeks	3 to 10 days	20%	33%	30%	97 to 100%	
CC(C)NCCCCc1ccc(OCCN2CCN(CCCN3c4ccccc4Sc4ccc(Cl)cc43)CC2)cc1 [1-[3-(2-chloro-10H-phenothiazin-10-yl)propyl]-4-[2-[4-[4-(1-methylethyl)aminobutyl]phenoxy]ethyl]piperazine]	51/2	1 days	17%	100%	55%	100%	
CSc1ccc2c(c1)N(CCCN1CCN(CCOc3ccc(OCCCCCNC(C)C)cc3)CC1)c1ccccc1S2.O=C(O)/C=C\C(=O)O.O=C(O)/C=C\C(=O)O.O=C(O)/C=C\C(=O)O [1-[3-(2-methylthio-10H-phenothiazin-10-yl)propyl]-4-[2-[4-[5-(1-methylethyl)aminopentoxy]phenoxy]ethyl]piperazine trimaleate]	3 days	0.0417 days	60%	45%	35%	60%	
CN(C)CCCOc1ccc(OCCN2CCN(CCCN3c4ccccc4Sc4ccc(Cl)cc43)CC2)cc1.Cl.Cl.Cl [3-[[4-[2-[4-[3-(2-chloro-10H-phenothiazin-10-yl)propyl]-1-piperazinyl]ethoxy]phenyl]oxy]-N,N-dimethylpropanamine trihydrochloride]	> 6 weeks	1 days	50%	100%	25%	100%	
CNCCCOc1ccc(OCCN2CCN(CCCN3c4ccccc4Sc4ccc(Cl)cc43)CC2)cc1.Cl.Cl.Cl [3-[[4-[2-[4-[3-(2-chloro-10H-phenothiazin-10-yl)propyl]-1-piperazinyl]ethoxy]phenyl]oxy]-N-methylpropanamine trihydrochloride]	5 weeks	1 days	65%	100%	25%	100%	
Cl.Cl.Cl.NCCCOc1ccc(OCCN2CCN(CCCN3c4ccccc4Sc4ccc(Cl)cc43)CC2)cc1 [3-[[4-[2-[4-[3-(2-chloro-10H-phenothiazin-10-yl)propyl]-1-piperazinyl]ethoxy]phenyl]oxy]propanamine trihydrochloride]	51/2	3 days	40%	73%	27%	90%	
CC(C)NC[C@@H](O)COc1ccc(OCCN2CCN(CCCN3c4ccccc4Sc4ccc(Cl)cc43)CC2)cc1.Cl.Cl.Cl [(R)-1-(1-methylethylamino)-3-[4-[2-[4-[3-(2-chloro-10H-phenothiazin-10-yl)propyl]piperazin-1-yl]ethoxy]phenoxy]-2-propanol, trihydrochloride]	3 weeks	10 days	20%	27%	27%	37%	
CC(C)NC[C@H](O)COc1ccc(OCCN2CCN(CCCN3c4ccccc4Sc4ccc(C(F)(F)F)cc43)CC2)cc1 [(S)-1-(1-methylethylamino)-3-[4-[2-[4-[3-(2-trifluoromethyl)-10H-phenothiazin-10-yl)propyl]piperazin-1-yl]ethoxy]phenoxy]-2-propanol trihydrochloride]							Duration of Sig. Activity ([1]; 25 mg/kg po): 61/2; Time of Peak Effect ([1]; 25 mg/kg po): 3 to 10 days; inhibition in vivo at 25 mg/kg ([1]; 1 h, 25 mg/kg po, 60 min. post-drug, read-out: Percentage Block of Avoidance, 60 min. post-drug): 33%; inhibition in vivo at 25 mg/kg ([1]; 25 mg/kg po, 24 hrs. post-drug, read-out: Percentage Block of Avoidance, 24 hrs. post-drug): 57%; inhibition in vivo at 25 mg/kg ([1]; 25 mg/kg po, at the indicated duration, read-out: Avoidance block at Duration of Sig. Activity (AB)): 37%; inhibition in vivo at 25 mg/kg ([1]; 25 mg/kg po, at time of peak effect, read-out: Avoidance block at Time of Peak Effect (AB)): 77 to 87%
O=C(CCCN1CCC(O)(c2ccc(Cl)cc2)CC1)c1ccc(F)cc1 [Haloperidol, haloperidol, reference compound]							ED50 ([1]; Rat, PO, 1 Hour Post-Drug, read-out: Discrete Avoidance ABD50): 0.35 mg/kg; minimal effective dose [2]: 0.28 mg/kg; ED50 [3]: 0.02 mg/kg; ED50 [4]: 0.35 mg/kg; ED50 [5]: 0.4 mg/kg; Dopamine Turnover-Brain, Caudate [6]: Signif. .uparw.; Dopamine Turnover-Brain, Limbic and Remainder [7]: Signif. .uparw.

Reference: patent publication US4471116A, “Substituted (10H-phenothiazin-10-L)-propyl-1-piperazines” (Hoffmann-La Roche Inc., priority 1982, dated 1984)
